Results reported in PubChem BioAssay AID1117344.
The source made the active and inactive calls. The rule behind the calls is not given here.

Test system: NCI-H716 cells, GLP-1 secretion
Experiment: glucagon-like peptide 1 release potency, dose-response assay, half-maximal inhibitory concentration in NCI-H716 cell line (AID 1117344)

| Compound | IC50 |
| --- | --- |
| CCCCCCCCCCCC(=O)[O][Sn]([CH2]CCC)([CH2]CCC)[O]C(=O)CCCCCCCCCCC | > 40 µM (inactive) |
| Cc1ccc([N+](=O)[O-])[c]2c1[O][Hg]2 | 9.87 µM (inactive) |
| CC(=O)[O][Hg][c]1ccccc1 | 9.57 µM (inactive) |
| CCCCCCCCCCCCCC[N+](C)(C)C | 18.6 µM (inactive) |
| OCCN1CCN(CC/C=C2/c3ccccc3Sc3ccc(C(F)(F)F)cc32)CC1 | 32.2 µM (inactive) |
